One assay has as its target sigma-1 receptors (Homo sapiens, UniProt Q99720). Kind of assay: binding to sigma-1 receptors. The following applies: read-out: median concentrations of binding (IC50) for sigma-1 receptors.
For another assay, the target named is sigma-2 receptors (Homo sapiens, UniProt Q5BJF2). The assay is described as follows: binding to sigma-2 receptors. The following applies: read-out: median concentrations of binding (IC50) for sigma-2 receptors.
For assay [1], the system named is site-2 of the sodium channels. The assay is described as follows: affinity for site-2 of the sodium channels. Type of assay: binding.
A short description of assay [2]: antagonism of pentylenetetrazole (PTZ) lethality in mice. Type of assay: in vivo. The following applies: PTZ 130 mg/kg ip, DPPA 3 mg/kg po. On the procedure: (§1) More important- at lower doses: 0,01 to 1,00 mg/kg, intraperitoneal (ip) in mice—the cytoprotective activity of DPPA obtained by antagonism of the endoplasmic reticulum stress (ER stress) and amelioration of the cytoprotective autophagic processus of the cells and, more specifically, of neurons (in the neurodegenerative diseases and eldery). […] These cytoprotective activities of DPPA were completed, specifically in neurons, by inhibiting their entry in the cell cycle, as this entry is always fatal for neurons. In contrast, concerning the cancer cells, the above inhibition triggered the apoptotic processus and their death.

The subject of assay [3] is mitochondrial toxicity of pentylenetetrazole (PTZ). Described as above. Type of assay: in vivo. The following applies: PTZ 130 mg/kg ip. As to the method: as §1
Assay [4] has as its system Paclitaxel-induced neuropathic pain. Kind of assay: neuropathic pain by sensibilisation with Paclitaxel, formalin injection in hind paw. It is filed as in vivo. As to conditions: po, mice. On the procedure: Finally, in the experimental protocol of neuropathic pain by sensibilisation with Paclitaxel and evaluation of the neuropathic pain by injection of formalin in the hind paw of mice, the analgesic effect of DPPA was significative from 1.0 mg/kg (po) and was spectacular at higher doses (25 to 75 mg/kg, po). Indeed, the Paclitaxel+DPPA treated mice were less sensible to formalin than the control mice not treated with Paclitaxel.

Assay [5] has as its system scopolamine induced amnesia. Kind of assay: scopolamine induced amnesia. Type of assay: in vivo. As to conditions: mice.
In assay [6] the test system is dizocilpine induced amnesia. Kind of assay: dizocilpine induced amnesia. It is filed as in vivo. The following applies: mice.
The test system of the next assay is Aβ25-35 induced amnesia. Kind of assay: amyloid Aβ25-35 induced amnesia (Y-maze and step-through). Type of assay: in vivo, mice. The source says:
Indeed, concerning the cytodegenerative diseases and more specifically the neurodegenerative diseases (Alzheimer, Huntington, Parkinson or Multiple Sclerosis), DPPA, in contrast to the symptomatic treatments used currently against the above diseases, antagonizes their pathophysiological causes ie., the endocellular biochemical stress and, concerning the neurons, also their fatal entry in the cell cycle. Of particular interest was the action of DPPA when it was coadministered with the inhibitors of the acetylcholinesterases (IAChEases) which are used as symptomatic drugs (principally Rivastigmine, Donepezil and Galantamine) against the Alzheimer's Disease (AD). […] Indeed, DPPA, via its antagonistic action on the M2 muscatinic autoreceptors of the brain cholinergic neurons (M2[−]), abolished the pro-neurodegenerative agonistic activity of the IAChEases on the hyperactivated (by AD or by the soluble Aβ25-35) cerebral M2 muscarinic autoreceptors, originating a new pharmacological approach (M2[−]) and (σ1[+]) against the neurodegenerative effects of Aβ25-35 in AD and also against the deleterious effect of the agonistic action of IAChEases on the M2 muscarinic brain autoreceptors, validating these drugs (IAChEases) as putative therapeutic agents against AD.

In assay [7] the test system is colon, prostate, ovarian, pancreas and hepatic cancer cells. The assay is described as follows: in vitro anticancer activity. It is filed as cell-based.
A further assay concerns cancer cells. The assay is described as follows: anticancer activity in vitro and in vivo by inoculation of cancer cells in SCID mice. Details: species or system immunosuppressed SCID mice. The source says:
The anticancer activity of DPPA was studied in vitro and in vivo by inoculation of cancer cells in immunosuppressed SCID mice. […] Moreover, even when the neuropathic pain, induced by the anticancer drugs was installed, DPPA antagonized it, by inhibition of the hypersensitive neurons injured by the neurotoxicity of the above anticancer drugs.

The target in a further assay is T1, M2 muscarinic receptors (Mus musculus, UniProt Q9ERZ4).
T1 construct: from tissue; host or cells: living mice, peripheral tissues
T1 sequence (Q9ERZ4 1-466): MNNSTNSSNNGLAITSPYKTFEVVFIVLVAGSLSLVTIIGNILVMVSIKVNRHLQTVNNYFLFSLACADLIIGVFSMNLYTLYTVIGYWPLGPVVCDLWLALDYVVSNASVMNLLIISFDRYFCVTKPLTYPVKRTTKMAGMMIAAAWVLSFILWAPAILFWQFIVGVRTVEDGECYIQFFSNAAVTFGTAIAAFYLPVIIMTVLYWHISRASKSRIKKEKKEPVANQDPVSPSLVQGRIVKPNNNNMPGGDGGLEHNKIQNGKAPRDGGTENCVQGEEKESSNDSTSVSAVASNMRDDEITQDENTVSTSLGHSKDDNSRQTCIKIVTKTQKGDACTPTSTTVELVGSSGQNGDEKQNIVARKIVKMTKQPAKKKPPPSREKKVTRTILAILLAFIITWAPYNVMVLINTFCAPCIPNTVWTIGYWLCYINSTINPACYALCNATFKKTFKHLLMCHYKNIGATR
Kind of assay: peripheral M2 muscarinic antagonism in mice. Type of assay: in vivo. As to conditions: 0.1 to 10 mg/kg, ip.

A further assay has as its target T2, M3 muscarinic receptors (Mus musculus, UniProt Q9ERZ3).
T2 construct: from tissue; host or cells: living mice, peripheral tissues
Kind of assay: peripheral M3 muscarinic antagonism in mice. It is filed as in vivo. The following applies: 0.1 to 10 mg/kg, ip.

The test system of assay [8] is immobility in forced swimming. As to conditions: po, mice, Porsolt; cited from earlier work.

SMILES strings stand for the structures.

Chain of sigma-2 receptors (Q5BJF2 whole entry): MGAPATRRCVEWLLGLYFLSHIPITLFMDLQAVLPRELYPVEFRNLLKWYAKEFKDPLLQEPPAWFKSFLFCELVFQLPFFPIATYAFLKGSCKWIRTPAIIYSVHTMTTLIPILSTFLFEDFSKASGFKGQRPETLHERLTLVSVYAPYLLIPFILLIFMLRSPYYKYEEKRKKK
T2 sequence (Q9ERZ3 whole entry): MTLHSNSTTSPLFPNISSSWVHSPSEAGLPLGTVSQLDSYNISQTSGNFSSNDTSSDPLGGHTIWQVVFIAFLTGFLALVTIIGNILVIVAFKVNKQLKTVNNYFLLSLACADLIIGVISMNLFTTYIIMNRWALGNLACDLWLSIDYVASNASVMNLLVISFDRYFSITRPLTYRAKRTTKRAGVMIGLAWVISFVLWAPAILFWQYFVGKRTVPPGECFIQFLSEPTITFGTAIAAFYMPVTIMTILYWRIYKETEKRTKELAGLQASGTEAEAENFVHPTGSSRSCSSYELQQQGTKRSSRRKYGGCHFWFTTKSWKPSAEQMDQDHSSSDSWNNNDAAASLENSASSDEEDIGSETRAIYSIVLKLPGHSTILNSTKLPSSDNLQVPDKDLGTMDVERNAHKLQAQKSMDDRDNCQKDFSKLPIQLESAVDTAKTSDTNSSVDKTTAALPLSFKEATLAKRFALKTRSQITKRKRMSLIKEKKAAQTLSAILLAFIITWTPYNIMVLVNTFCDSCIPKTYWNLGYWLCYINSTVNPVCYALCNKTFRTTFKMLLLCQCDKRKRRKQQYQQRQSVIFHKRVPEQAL
Chain of sigma-1 receptors (Q99720 whole entry): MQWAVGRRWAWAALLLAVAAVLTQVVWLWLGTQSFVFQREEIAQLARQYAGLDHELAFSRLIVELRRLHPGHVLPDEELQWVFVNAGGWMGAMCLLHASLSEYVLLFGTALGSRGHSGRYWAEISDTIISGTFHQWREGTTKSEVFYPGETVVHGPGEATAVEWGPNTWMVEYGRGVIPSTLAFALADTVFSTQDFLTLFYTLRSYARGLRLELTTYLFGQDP

For `CC(NCCC(c1ccccc1)c1ccccc1)c1ccccc1` (centres unmarked) [DPPA, 3,3-diphenyl-N-(1-phenylethyl) propan-1-amine], the values for the IC50 (at sigma-1 receptors; on sigma-2 receptors; in assay [1]) were 14 to 18 nM, 730 to 850 nM and 290 nM, respectively. The “increase of the latency of lethality of PTZ” value in [2] turned out to be 5 fold; in [3] (DPPA 10 mg/kg po), 10 fold; in [3] (DPPA 30 mg/kg po), 20 fold. The “analgesic effect at higher doses” value in [4] (25 to 75 mg/kg) is reported as “spectacular”. Moreover, the “dose from which the analgesic effect was significative” value in [4] (Paclitaxel sensibilisation, formalin in hind paw) is given as at least 1.0 mg/kg. Further, in assay [5], the “antagonism of scopolamine induced amnesia” value is “antagonism”. Further, the “antagonism of dizocilpine induced amnesia” value in assay [6] is recorded as “antagonism”. Further, the “antiamnesic action on coadministration with IAChEases (Rivastigmine or Donepezil)” value in the assay with Aβ25-35 induced amnesia (intracerebral soluble Aβ25-35, mice, Y-maze and step-through) is “higher than the sum of the antiamnesic effects of DPPA and IAChEases”. For the same compound, the “antagonism of amyloids Aβ25-35 induced amnesia” value in the assay on Aβ25-35 induced amnesia (mice) is “antagonism”. For the same compound, in assay [7], the “anticancer activity on cancer cells in vitro” value is “demonstrated the anticancer activity”. Also, the “anticancer activity versus clinically used anticancer drugs” value with cancer cells is listed as “lower than those of the clinically used anticancer drugs”. Moreover, the “effects on M2 muscarinic receptors in the periphery” value on M2 muscarinic receptors is “antagonistic effects”. The “effects on M3 muscarinic receptors in the periphery” value at M3 muscarinic receptors is “antagonistic effects”. In [8], the “dose at which anti-immobility properties are significative” value is recorded as “more than 10 mg/kg”.

These data come from patent publication US20150126611A1, “3,3-DIPHENYL-N-(1-PHENYLETHYL) PROPAN-1-AMINE: AS A NEW SELECTIVE LIGAND OF THE SIGMA-1 RECEPTORS, WITH ANTI-APOPTOTIC (CYTOPROTECTIVE) PROPERTIES AND PROTOTYPICAL ANTICANCER ACTIVITY” (priority 2012, published 2015).
